Experimental data: patent publication US11191758B2, “Use of selective serotonin 5-HT1A receptor agonists for treating side-effects of VMAT inhibitors” (Neurolixis, priority 2017, dated 2021)
“Also recorded” adds a separate entry of the source. Read-outs that look alike come from different tables or passages of the source. Values belong to the compound of their own block, whether it stands above or below them.

What was measured:
[1] = test system: TBZ-treated rats (catalepsy); experiment: Cross-legged position (CLP) catalepsy test, TBZ-induced catalepsy; format: in vivo, rat; conditions: TBZ 2 mg/kg i.p.
Method: Animals were obtained, housed and handled according to the same protocols described for Example 3. Similarly, drugs were prepared and administered according to the same protocols described for Example 3. All compounds were tested at the dose of 0.63 mg/kg.
Catalepsy induction in rats is a recognized model of Parkinsonism (Duty, S., 2011 Br J Pharmacol. 164, 1357-91). Here, catalepsy was measured using the cross-legged position test (CLP test) according to the method described by (Prinssen, E. P., et al., 1998 Eur J Pharmacol. 356, 189-92). Serotonin 5-HT1A receptor agonists were administered to rats (at least 6 per group) by oral administration (p.o.) 55 minutes before the CLP test, TBZ (2 mg/kg) was administered to rats by intraperitoneal (i.p.) route 30 min before testing. In the CLP test, the hind-limbs were placed over the ipsilateral forelimbs and the time during which an animal remained in this position was determined up to maximum of 30 seconds. The test was repeated three times (inter-trial time: 3 minutes) and the mean of the three trials was used for analysis. Animals were put back in their home cage after each set of tests.

[2] = cited from earlier work
[3] = molecular target: T1, serotonin 5-HT1A receptors (Rattus norvegicus, UniProt P19327); experiment: [35S]GTPγS binding G-protein activation assay, rat hippocampal membranes; format: biochemical; conditions: for Emax: read-out: Emax, stimulation of [35S]GTPγS binding relative to 5-HT
T1 construct: Hippocampi were dissected and homogenized in 20 volumes of buffer A; from tissue; host or cells: rat hippocampus membranes (male Sprague-Dawley)
T1 sequence (P19327 1-422): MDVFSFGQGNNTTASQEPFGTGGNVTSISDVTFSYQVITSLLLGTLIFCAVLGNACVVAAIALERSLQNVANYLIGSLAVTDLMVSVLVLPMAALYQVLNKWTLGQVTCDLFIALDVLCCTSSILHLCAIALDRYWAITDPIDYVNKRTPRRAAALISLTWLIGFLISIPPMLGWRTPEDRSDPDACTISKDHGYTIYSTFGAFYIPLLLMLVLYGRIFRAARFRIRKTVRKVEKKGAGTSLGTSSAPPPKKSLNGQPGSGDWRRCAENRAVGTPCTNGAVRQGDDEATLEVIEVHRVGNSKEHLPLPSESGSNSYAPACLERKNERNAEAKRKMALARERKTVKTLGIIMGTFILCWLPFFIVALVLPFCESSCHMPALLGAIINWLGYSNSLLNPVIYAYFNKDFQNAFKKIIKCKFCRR
Method: Agonist efficacy for stimulation of G-protein activation at serotonin 5-HT1A receptors can be determined by [^35S]GTPγS binding assays as follows. Experiments employed brains of male Sprague-Dawley rats which were stored at −70° C. before use in binding assays. Experiments were carried out in triplicate and repeated at least three times. Frozen brains were thawed in ice-cold buffer A (50 mM Hepes containing 150 mM NaCl, 0.2 mM EDTA, 1 mM GTP, 10 μM pargyline; pH 7.4, 23° C.). Hippocampi were dissected and homogenized in 20 volumes of buffer A before incubation at 37° C. for 10 min to dissociate endogenous neurotransmitters from receptors. The homogenate was centrifuged at 20 000 g for 15 min, at 4° C. The pellet was re-suspended in buffer A and recentrifuged as before. The pellet was then re-suspended in buffer B (50 mM Hepes containing 150 mM NaCl, 0.2 mM EDTA, 5 mM MgCl2, 100 μM GDP, 10 μM pargyline), centrifuged as before and re-suspended in buffer B. Membranes were incubated in buffer B with test compounds and 0.1 nM [^35S]GTPγS for 60 min at 37° C. The incubation was terminated by rapid filtration through Whatman GF-B fiber filters using a Brandel harvester. Radioactivity retained on the filters was measured by liquid scintillation counting. Data were analyzed using a nonlinear curve-fitting program (Prism, Graphpad Software, San Diego, Calif., USA), and are expressed as mean value±S.E.M.
It should be noted that 5-HT can activate different 5-HT receptors. Herein, only the proportion of 5-HT's effect which is 5-HT1A receptor-dependent was considered in the calculations.

[4] = test system: patients with chorea associated with HD; conditions: cited from earlier work
[5] = test system: TBZ-treated rats (immobility, depression behavior); experiment: Forced Swim Test, 5-HT1A receptor agonists in TBZ-treated rats; format: in vivo, rat; conditions: TBZ […] i.p.
Method: The experiments were performed on male Wistar rats (170-200 g) obtained from an accredited animal facility at the Jagiellonian University Medical College, Poland. The animals were housed in group of four in controlled environment (ambient temperature […]; relative humidity 55%±10%; 12-h light/dark cycles (lights on at 8:00). Standard laboratory food (LSM-B) and filtered water were freely available. Animals were assigned randomly to treatment groups. All the experiments were performed by two observers unaware of the treatment applied between 9:00 and 14:00 on separate groups of animals. All animals were used only once. All the experimental procedures complied with the European Communities Council Directive of 24 Nov. 1986 (86/609/EEC) and were in accordance with the 1996 NIH Guide for the Care and Use of Laboratory Animals.
Tetrabenazine (TBZ) was dissolved in a vehicle solution of 0.9% saline and dimethylsulfoxide (DMSO) (20%). 10-μl hydrochloric acid (HCl) was then added to achieve full solubilization of the drug. TBZ (1.5 mg/kg) was administered intraperitoneally (i.p.).
All compounds were given in a volume of 2 ml/kg. […]
The experiment was carried out according to a well-characterized method (Porsolt, R. D., et al., 1978 Eur J Pharmacol 47, 379-91). On the first day of an experiment, the animals (at least n=6 per group) were gently individually placed in Plexiglas cylinders (40 cm high, 18 cm in diameter) containing water (17 cm deep) maintained at 23-25° C. for 15 min. On removal from water, the rats were placed for 30 min in a Plexiglas box under a 60 W incandescent filament bulb to dry. On the following day (24 h later), TBZ (1.5 mg/kg) was administered to rats by intraperitoneal (i.p.) route 90 min before testing. Serotonin 5-HT1A receptor agonists were then administered to rats by oral administration (p.o.) 60 minutes before the rats were re-placed in the cylinder and the total duration of their immobility was recorded during the 5-min test period. The swimming behavior entailed active swimming motions, e.g., moving horizontally around in the cylinder, and immobility was assigned when no additional activity was observed other than that necessary to keep the rat's head above the water.

[6] = molecular target: other 5-HT, dopaminergic, adrenergic receptors; conditions: cited from earlier work
[7] = 0.63 mg/kg p.o. ((±)8-OH-DPAT s.c.)
[8] = agonist 10 μM, % of stimulation by 5-HT 10 μM (5-HT1A-dependent part)

SMILES: CCCN(CCC)C1CCc2cccc(O)c2C1 (racemic) [(±)8-OH-DPAT, (±)8-hydroxy-2-(di-n-propylamino)tetralin]
effect on TBZ-induced CLP catalepsy duration [1, 7]: almost no CLP catalepsy; also recorded: significantly decreased durations of immobility
oral bioavailability [2]: poorly bioavailable by oral route
Emax, stimulation of [35S]GTPγS binding relative to 5-HT [3, 8]: intermediate between that of buspirone and the other compounds; also recorded: intermediate efficacy

SMILES: COc1cc2c(cc1OC)[C@@H]1CC(=O)[C@@H](CC(C)C)CN1CC2 (racemic) [TBZ, (SS,RR)-3-Isobutyl-9,10-dimethoxy-1,3,4,6,7,11b-hexahydro-pyrido[2,1-a]isoquinolin-2-one]
patients with symptoms suggestive of Parkinsonism ([4]; 12-week double-blind, placebo-controlled study, placebo 0%): 15%
patients with symptoms suggestive of Parkinsonism ([4]; 48-week open-label study): 10%
patients with symptoms suggestive of Parkinsonism ([4]; 80-week open-label study): 3%

share of 5-HT-induced [35S]GTPγS binding mediated by 5-HT1A receptors ([3]; from WAY100635 (1 μM) co-incubation): 85%
SMILES: NCCc1c[nH]c2ccc(O)cc12 [5-HT, 5-hydroxytryptamine]

SMILES: Cc1ccc(CNCC2(F)CCN(C(=O)c3ccc(F)c(Cl)c3)CC2)nc1 [befiradol, (3-Chloro-4-fluoro-phenyl)-[4-fluoro-4-{[(5-methyl-pyridin-2-ylmethyl)-amino]-methyl}piperidin-1-yl]methanone]
effect on TBZ-induced CLP catalepsy duration [1, 7]: almost no CLP catalepsy; also recorded: significantly decreased durations of immobility
Emax [3]: > 90%
effect on immobility duration in TBZ-treated rats [5, 7]: significantly decreased durations of immobility
effect on immobility duration in TBZ-treated rats ([5]; 0.63 mg/kg p.o. ((±)8-OH-DPAT s.c.), listed as Befiradol): significantly reduced immobility times
pKi at other 5-HT, dopaminergic, adrenergic receptors [6]: less than 6

Emax [3, 8]: ~50%
SMILES: O=C1CC2(CCCC2)CC(=O)N1CCCCN1CCN(c2ncccn2)CC1 [buspirone]
effect on TBZ-induced CLP catalepsy duration ([1]; buspirone 0.63, 2.5 or 5 mg/kg): does not diminish TBZ-induced catalepsy behavior; also recorded: None of the doses of buspirone showed durations of catalepsy that differed significantly
effect on immobility duration in TBZ-treated rats ([5]; buspirone 0.63 or 2.5 mg/kg p.o.): did not reduce immobility
effect on immobility duration in TBZ-treated rats ([5]; buspirone 0.63 or 2.5 mg/kg p.o., listed as Buspirone): did not reduce immobility duration significantly

SMILES: Cc1cnc(CNCC2(F)CCN(C(=O)c3ccc(F)c(Cl)c3)CC2)nc1 [derivative 1a, 3-chloro-4-fluorophenyl-[4-fluoro-4-[[(5-methylpyrimidin-2-ylmethyl)amino]methyl]piperidin-1-yl]methanone]
effect on TBZ-induced CLP catalepsy duration [1, 7]: almost no CLP catalepsy; also recorded: significantly decreased durations of catalepsy
Emax [3]: > 90%
